# ± gives the expanded uncertainty stated by the source.
# Columns and labels:
# [1] = Molar enthalpy of transition or fusion; settings: Crystal; DSC
# [2] = Crystal; DSC
structure (smiles),measurement,setting,value
O=C1CCCCCCCCCCCN1 [2-azacyclotridecanone],Molar enthalpy of transition or fusion,[1],3.9 ± 0.12 kcal/mol
same,Triple point temperature,[2],425.95 ± 0.93 K
